Source: PMC4155405 (Nature communications, 2014)
Read-outs that look alike come from different tables or passages of the source.

What was measured:
[1] = system: recombinant Wuhan95 (H3N2) PB1-V43I virus; format: cell-based, influenza A virus A/Wuhan/359/95 (H3N2)
in vitro = settings: dog
[2] = system: recombinant virus Wuhan95 (H3N2); format: cell-based, influenza A virus A/Wuhan/359/95 (H3N2)
[3] = system: Wuhan95 (H3N2) wild-type virus; format: cell-based, influenza A virus A/Wuhan/359/95 (H3N2)
[4] = system: Wuhan95 (H3N2) PB1-V43I virus; format: cell-based, influenza A virus A/Wuhan/359/95 (H3N2)

| SMILES | fold increase in EC50, PB1-V43I mutant versus wild-type H3N2 virus [1] [fold] | EC50 ([1]; read-out: EC50 (favipiravir, virus titre in MDCK cells)) [µM] | CC50 (in vitro) [µM] | genomic mutation frequency [2] | fold higher virus titre of PB1-V43I virus compared to wild-type recombinant Wuhan95 virus [1] [fold] | EC50 ([1]; read-out: EC50 (ribavirin, virus titre in MDCK cells)) [µM] | fold higher mutational frequency of wild-type virus than PB1-V43I virus [3] [fold] | mutational frequency in the HA gene [3] | mutational frequency in the HA gene [4] |
| --- | --- | --- | --- | --- | --- | --- | --- | --- | --- |
| NC(=O)c1nc(F)c[nH]c1=O [favipiravir] | 2.24 | 24.6 | – | – | – | – | – | – | – |
| Nc1nc2c(ncn2[C@@H]2O[C@H](CO)[C@@H](O)[C@H]2O)c(=O)[nH]1 [guanosine] | – | – | 122 ± 0.11 | – | – | – | – | – | – |
| NC(=O)c1ncn([C@@H]2O[C@H](CO)[C@@H](O)[C@H]2O)n1 [ribavirin, 1-[(2R,3R,4S,5R)-3,4-dihydroxy-5-(hydroxymethyl)oxolan-2-yl]-1H-1,2,4-triazole-3-carboxamide] | – | – | 352 ± 0.04 | 15.74 per 10^4 nucleotide sequenced | 10.8 | 73.5 | 1.36 | 5.53 mutations per 10^4 nucleotides | 4.08 mutations per 10^4 nucleotides |
